Measured values published in patent publication US11331387B2, “Self-assembled drug-loading system and preparation method therefor” (SHANGHAI SELECTION BIOSCIENCE LLC., priority 2016, dated 2022).

Legend:
BCap37 cells [1] = test: photothermal therapy effect at the cellular level; assay type: cell-based, human; settings: 3 h incubation, 808 nm laser 5 min, 1 W/cm^2
Procedure: The endocytosis experiment was carried out with the indocyanine green complex formulations prepared in embodiments 1 and 2 of the present invention, and the free ICG was used as a control. The procedures were as follows:
The experiment was divided into ICG/SN38 group, ICG/PTX group and ICG group. The BCap37 cells on the stage of logarithmic phase were evenly seeded in a 12-well plate at 1×10^5 cells/well. After 24 hours of incubation, the incubation medium was discarded, and the above formulations in 1 mL culture medium were added to the plate, respectively. After 3 hours of incubation, the incubation medium was discarded, and 1 mL of PBS was added. The three wells incubated with different formulations were then irradiated with 808 nm laser for 5 min (1 W/cm^2), and were photographed in real time by an infrared thermal camera, and the graphs of the temperature changes of each group were recorded.

[2] = tested on: BCap37 human breast cancer cell line tumor; test: tumor inhibition experiment in tumor-bearing nude mice, with and without irradiation; assay type: in vivo
Procedure: After the tumor size was grown to about 100 mm^3 (9 days after inoculation), the tumor-bearing nude mice were randomly divided into 7 groups, 5 in each group. One group was injected with PBS as blank control, and the other six administration groups were categorized as the ICG small molecule group without irradiation, ICG small molecule group plus irradiation, ICG/SN38 nanoparticle group, ICG/SN38 nanoparticle group plus irradiation, ICG/PTX aqueous solution group, and ICG/PTX aqueous solution group plus irradiation, respectively. The mice were injected via the tail vein at a dose of calculated ICG concentration at 10 mg/kg, and were administered once every other day for 2 times. The tumor size was recorded until the end of the experiment. The therapeutic effect was evaluated by comparing the treatment group with the control group. The tumor inhibition rate (IR) was calculated by the following formula: IR=100%×(mean tumor weight of the control group−mean tumor weight of the experimental group)/mean tumor weight of the control group.
FIG. 15 was the results of tumor inhibition after irradiation treatment. The ICG group was administered twice, and the ICG/SN38 nanoparticle group was administered once. Irradiation was carried out 4 hours after administration (808 nm laser, intensity 1 W/cm^2, irradiation for 2 minutes). […]

cells = test: cellular uptake by laser confocal microscopy; assay type: cell-based; settings: 2 hours after drug applied
Procedure: In order to judge the rate of cellular uptake of drug from the nano formulation, as well as the therapeutic effect of the drug, the laser confocal microscopy microscope was used to observe the distribution of the drug in the cells 2 hours after drug applied. […] Therefore, the largest amount of ICG could enter into the cell to exert best therapeutic effect in the nano drug-loading system.

[3] = plasma clearance test on mice; assay type: in vivo
Procedure: To determine the appropriate drug ratio of ICG/SN38 nanoparticles for animal experiments, a series of ICG/SN38 nanoparticles: I2S1, I1S1, I1S2, I1S5 and I1S10 were prepared, and the average particle size thereof was 130 nm, 55 nm, 36 nm, 30 nm and 26 nm, respectively. The plasma clearance rate of the nanoparticles was measured based on the content of SN38 (10 mg/kg).
In addition, the plasma clearance rates of small molecule ICG, ICG/PTX solutions, and ICG/SN38 nanoparticles were compared.

BCap37 cells [4] = test: MTT cytotoxicity test with and without irradiation; assay type: cell-based, human
Procedure: FIG. 9 is a graph showing a cytotoxicity test of ICG and the complex formulation thereof on BCap37 cells. (I1S2 is a nanoparticle formed by ICG and SN38 with a molar ratio of 1:2; and I1P1 is an aqueous solution drug of the complex formed by ICG and Paclitaxel with a molar ratio of 1:1. The drugs were applied for 24 hours and then washed off, followed by incubation for 24 hours after irradiation and non-irradiation treatment, respectively.)
200 μL of cell suspension at the density of 4000 cells/well was uniformly added to a 96-well plate. After 24 hours of incubation, ICG, ICG/SN38 (I1S2) nanoparticles, ICG/PTX (I1P1) complex solution and ICG/CCM (I1C2) complex solution were added at different concentration points. Two identical plates were incubated in dark for 3 hours, and then culture medium was removed and washed three times with PBS, followed by addition of fresh medium. The irradiation group was further dark-incubated after 30 minutes of irradiation under a fluorescent lamp, and the other cell culture plate was dark-incubated all long as a light-proof control group. After 48 hours of incubation, culture plates were centrifuged at 900 rpm, and culture medium was carefully removed. The plates were added the medium containing 0.75 mg/mL MIT dark-incubated for 3 hours, centrifuged at 3500 rpm. After carefully removing the culture solution, the plates were added 100 μL of DMSO to each well, and shaked for 5 minutes to completely dissolve the purple solids. The absorbance (OD) value was recorded on a microplate reader. The test of each drug concentration point was repeated 3 times.

[5] = tested on: BCap37 human breast cancer cell line tumor; test: in vivo fluorescence imaging in tumor-bearing nude mice; settings: 3 hours after administration, FIG. 13
Description: Therefore, these two nanoparticle formulations were further selected for in vivo fluorescence imaging in tumor-bearing nude mice, in comparison with small molecule ICG. The tumor was located 2 cm below the right armpit of the mouse, derived from BCap37 human breast cancer cell line.

For CC1(C)C(/C=C/C=C/C=C/C=C2\N(CCCCS(=O)(=O)[O-])c3ccc4ccccc4c3C2(C)C)=[N+](CCCCS(=O)(=O)[O-])c2ccc3ccccc3c21.[Na+] [ICG, indocyanine green], the cell temperature change (BCap37 cells [1]) was “no significant temperature changes”, the anti-tumor effect ([2]; irradiation 4 hours after administration, 808 nm, 1 W/cm^2, 2 minutes) was “residual tumors were still present and recurred rapidly after the end of treatment” and the anti-tumor effect ([2]; non-irradiation, ICG 10 mg/kg tail vein, every other day for 2 times) was “no anti-tumor effect at all”. The “cellular uptake / intracellular distribution” value (cells) was “difficult to enter the cell”, the ICG in plasma ([3]; after 1 hour) was “nearly not detectable” and the plasma clearance ([3]; mice, FIG. 11) was “extremely fast”. For the same compound, the concentration at 3 min ([3]; mouse, plasma, other: injection (site not specified), three minutes after injecting) was < 1000 ng/mL, the IC50 (BCap37 cells [4]; Homo sapiens, Bcap37, light or radiation study, with light irradiation) was ~13.5 µM and the cell death (BCap37 cells [4]; ICG 20 μM, after irradiation) was “death of all the cells”. For the same compound, the “toxicity to the cells” value (BCap37 cells [4]; in the absence of light) was “not toxic” and the “in vivo distribution by fluorescence” value [5] was “the majority of ICG from the small molecule ICG group were cleared by the body”.
